Laboratory results reported in patent US20230357162A1, “COMPOUNDS, COMPOSITIONS AND METHODS” (Denali Therapeutics Inc., priority 2020, published 2023).

System: IL-1β secretion, THP-1 cells
Test: IL-1β secretion assay in PMA-differentiated THP-1 cells stimulated with LPS and nigericin (ELISA readout)
Assay type: cell-based
Details: Homo sapiens, THP-1, inhibition of IL-1β secretion, 25 ng/mL LPS then nigericin
Method: Compounds as provided herein were tested in the following assay. Cell culture medium employed contained RPMI 1640 medium (89%), FBS (10%), Pen/Strep (1%), and 2-mercaptoethanol (0.05 mM). Freezing medium was made up of 90% FBS and 10% DMSO. THP-1 cells were removed from the liquid nitrogen and placed into a 37° C. water bath to thaw, until signs of ice dissipated. The cells were then added to 9 mL of warm cell culture medium and centrifuged for 5 minutes at 1000 rpm. The supernatant was discarded, and the cells were resuspended in new cell culture medium. THP-1 cells were then split and cultured in the cell culture medium, being passaged every 2-3 days with the cell density will be maintained between 5×10^5 and 1.5×10^6 viable cells/mL.
PMA was dissolved in DMSO to make a stock solution at 5 mg/ml and stored in 10 µl aliquots at -20° C. for single use. PMA is added to normal growth medium. LPS was diluted with 1 mL of water solution to provide a 1 mg/mL stock solution and stored in 15 µl aliquots at -20° C. for single use. Nigericin is diluted in ice cold 100% ethanol to 5 mg/ml (6.7 mM) and stored in 75 µL aliquots at -20° C. for single use. Serum-free media contains RPMI 1640 medium (99%), Pen/Strep (1%), and 2-mercaptoethanol (0.05 mM). The two control conditions used to qualify and normalize test compound dose-response curves were as follows: High Control = 25 ng/mL LPS, 5 µM Nigericin, 0.5% DMSO, Low Control = 25 ng/mL, LPS, 0.5% DMSO.
THP-1 cells were diluted to provide a suspension at a concentration of 1.0×10^6 cells/mL with the total volume of suspension required to enable the desired number of assay plates. The growth media was supplemented with PMA (5 ng/mL final concentration) and the cells were incubated at 37° C. under a humidified atmosphere of 5% CO2 for 40 h.
All media was carefully aspirated from each culture flask. The cells were washed carefully with 1x DPBS. The cells were then briefly digested with trypsin LE for 5 minutes at 23° C. and immediately resuspended in cell growth media. After resuspension, the cells were centrifuged at 1000 rpm for 3 minutes and the supernatant was discarded. The cells were resuspended in DPBS and once again centrifuged at 1000 rpm for 5 minutes. The supernatant was discarded and the cell pellet was resuspended in serum-free media supplemented with LPS (25 ng/mL final concentration) to enable the distribution of 30 K THP-1 cells within 45 µL of media into each well of 384-well PDL-coated plates. The 384-well plates were then incubated at 37° C. under a humidified atmosphere of 5% CO2 for 2 h. Following this period, test compounds were dispensed by Tecan across the desired concentration range with all wells normalized to a final 0.5 % DMSO concentration. The plates were then then incubated at 37° C. under a humidified atmosphere of 5% CO2 for 1 h. Following this period, 5 µL of the […] nigericin stock solution was added to each of the appropriate wells and plates were centrifuged at 1000 rpm for 30 seconds. The plates were the immediately reintroduced to the incubator at 37° C. under a humidified atmosphere of 5% CO2 for 2 h. After this time, 35 µL/well of supernatant was collected and transferred into v-bottom plate and centrifuged at 1000 rpm for 1 minute. These supernatant aliquots were analyzed using an IL-Iβ detection kit as described below. If needed, the test samples could be snap frozen and stored at -80° C. until analyzed.
To prepare each ELISA plate, capture antibody (mAb Mt175) was diluted with PBS to a final concentration of 2 µg/mL and then 20 µL of this solution was added to each well of the ELISA plate. Each plate was allowed to incubate overnight at 4° C. The next day, the capture antibody solution was removed and discarded. Each ELISA plate was washed 4 times with PBST followed by the addition of 25 µL/well of blocking buffer (Licor-927-40010) supplemented with 0.1% Tween 20. Each ELISA plate was then allowed to incubate for 1 hour at 23° C. […]

| SMILES | IC50 (class column of Table 3) [nM] | IC50 (numeric column of Table 3) [nM] |
| --- | --- | --- |
| O=C(Cn1nc(OC2CC2)c2cc(Br)ccc2c1=O)N[C@@H]1CCCN(C2CC2)C1 [Example 178] | < 10000 | 140 |
| O=C(Cn1nc(OC2CCC2)c2cc(Br)ccc2c1=O)Nc1ncc(F)cn1 [Example 153, 2-(6-bromo-4-cyclobutyloxy-1-oxophthalazin-2-yl)-N-(5-fluoropyrimidin-2-yl)acetamide] | < 10000 | 147 |
| O=C(Cn1nc(OCC(F)(F)F)c2cc(Br)ccc2c1=O)Nc1ncc(F)cn1 [Example 138, 2-[6-bromo-1-oxo-4-(2,2,2-trifluoroethoxy)phthalazin-2-yl]-N-(5-fluoropyrimidin-2-yl)acetamide] | 10000 to 15000 | 11100 |
| CC(C)c1nn(CC(=O)Nc2ncc(F)cc2F)c(=O)c2ccc(Br)cc12 [Example 38, 2-(6-bromo-1-oxo-4-propan-2-ylphthalazin-2-yl)-N-(3,5-difluoropyridin-2-yl)acetamide] | < 10000 | 913 |
| O=C(Cn1nc(OC2CN(CC(F)(F)F)C2)c2cc(Br)ccc2c1=O)Nc1ncc(F)cn1 [Example 170, 2-[6-bromo-1-oxo-4-[1-(2,2,2-trifluoroethyl)azetidin-3-yl]oxyphthalazin-2-yl]-N-(5-fluoropyrimidin-2-yl)acetamide] | < 10000 | 493 |
| O=C(Cn1nc(OC2COC2)c2cc(Br)ccc2c1=O)Nc1ncc(F)cn1 [Example 161] | < 10000 | 3630 |
| O=C(Cn1nc(C(F)F)c2cc(Br)ccc2c1=O)Nc1ncc(Cl)cc1F [Example 134] | < 10000 | 1210 |
| CC(C)c1nn(CC(=O)Nc2cccnc2)c(=O)c2ccc(Br)cc12 [Example 55, 2-(6-bromo-1-oxo-4-propan-2-ylphthalazin-2-yl)-N-pyridin-3-ylacetamide] | < 10000 | 710 |
| CC(C)c1nn(CC(=O)Nc2cnccn2)c(=O)c2ccc(Br)cc12 [Example 71, 2-(6-bromo-1-oxo-4-propan-2-ylphthalazin-2-yl)-N-pyrazin-2-ylacetamide] | < 10000 | 499 |
| CC(C)c1nn(CC(=O)Nc2ncncc2F)c(=O)c2ccc(C(F)F)cc12 [Example 21, 2-[6-(difluoromethyl)-1-oxo-4-propan-2-ylphthalazin-2-yl]-N-(5-fluoropyrimidin-4-yl)acetamide] | < 10000 | 1060 |
| O=C(Cn1nc(C(F)F)c2ccc(Br)cc2c1=O)Nc1ncc(F)cn1 [Example 104, 2-[7-bromo-4-(difluoromethyl)-1-oxophthalazin-2-yl]-N-(5-fluoropyrimidin-2-yl)acetamide] | < 10000 | 6990 |
| COc1c(Br)ccc2c(=O)n(CC(=O)Nc3ncc(F)cn3)nc(Cl)c12 [Example 141, 2-(6-bromo-4-chloro-5-methoxy-1-oxophthalazin-2-yl)-N-(5-fluoropyrimidin-2-yl)acetamide] | < 10000 | 1200 |
| CC(C)c1nn(CC(=O)Nc2ncncc2F)c(=O)c2ccc(Br)nc12 [Example 22, 2-(2-bromo-5-oxo-8-propan-2-ylpyrido[2,3-d]pyridazin-6-yl)-N-(5-fluoropyrimidin-4-yl)acetamide] | < 10000 | 398 |
| CC(C)c1nn(CC(=O)Nc2ccnc(C(F)(F)F)n2)c(=O)c2ccc(Br)cc12 [Example 34, 2-(6-bromo-1-oxo-4-propan-2-ylphthalazin-2-yl)-N-[2-(trifluoromethyl)pyrimidin-4-yl]acetamide] | < 10000 | 1890 |
| O=C(Cn1nc(OC2CC2)c2cc(C(F)(F)F)ccc2c1=O)Nc1ncc(F)cn1 [Example 174, 2-(4-cyclopropoxy-1-oxo-6-(trifluoromethyl)phthalazin-2(1H)-yl)-N-(5-fluoropyrimidin-2-yl)acetamide] | < 10000 | 515 |
| CC(C)c1nn(CC(=O)Nc2ccc(C(F)(F)F)nc2)c(=O)c2ccc(Br)cc12 [Example 45, 2-(6-bromo-1-oxo-4-propan-2-ylphthalazin-2-yl)-N-[6-(trifluoromethyl)pyridin-3-yl]acetamide] | < 10000 | 1190 |
| CC(C)c1nn(CC(=O)Nc2ncncc2F)c(=O)c2c(F)cc(Br)cc12 [Example 92, 2-(6-bromo-8-fluoro-1-oxo-4-propan-2-ylphthalazin-2-yl)-N-(5-fluoropyrimidin-4-yl)acetamide] | < 10000 | 741 |
| O=C(Cn1nc(C(F)F)c2ccc(Br)cc2c1=O)Nc1ncccn1 [Example 94, 2-[7-bromo-4-(difluoromethyl)-1-oxo-phthalazin-2-yl]-N-pyrimidin-2-yl-acetamide] | < 10000 | 6050 |
| O=C(Cn1nc(OC(F)(F)F)c2cc(Br)ccc2c1=O)Nc1ncncc1F [Example 82] | < 10000 | 1480 |

Results, then the compound that gave them:

| IC50 (class column of Table 3) [nM] | IC50 (numeric column of Table 3) [nM] | SMILES |
| --- | --- | --- |
| < 10000 | 1170 | CC(C)c1nn(CC(=O)NC2CCCC2(F)F)c(=O)c2ccc(Br)cc12 (stereo not shown) [Example 46, 2-(6-bromo-1-oxo-4-propan-2-ylphthalazin-2-yl)-N-(2,2-difluorocyclopentyl)acet amide] |
| < 10000 | 3060 | CC(C)c1nn(CC(=O)NC2CCCOC2)c(=O)c2ccc(Br)cc12 (stereo not shown) [Example 125, 2-(6-bromo-1-oxo-4-propan-2-ylphthalazin-2-yl)-N-(oxan-3-yl)acetamide] |
| < 10000 | 1780 | CC(C)c1nn(CC(=O)NC2CCC2)c(=O)c2ccc(Br)cc12 [Example 126, 2-(6-bromo-1-oxo-4-propan-2-ylphthalazin-2-yl)-N-cyclobutylacetamide] |
| < 10000 | 2850 | CC(C)c1nn(CC(=O)NCC2CCOC2)c(=O)c2ccc(Br)cc12 (stereo not shown) [Example 75, 2-(6-bromo-1-oxo-4-propan-2-ylphthalazin-2-yl)-N-(oxolan-3-ylmethyl)acetamide] |
| < 10000 | 423 | CC(C)c1nn(CC(=O)Nc2ccnnc2)c(=O)c2ccc(Br)cc12 [Example 121, 2-(6-bromo-1-oxo-4-propan-2-ylphthalazin-2-yl)-N-pyridazin-4-ylacetamide] |
| < 10000 | 3230 | CC(C)c1nn(CC(=O)Nc2cncnc2)c(=O)c2ccc(Br)cc12 [Example 56, 2-(6-bromo-1-oxo-4-propan-2-ylphthalazin-2-yl)-N-pyrimidin-5-ylacetamide] |
| < 10000 | 8060 | CC(C)c1nn(CC(=O)NC(C)C2CCC2)c(=O)c2ccc(Br)cc12 (stereo not shown) [Example 76, 2-(6-bromo-1-oxo-4-propan-2-ylphthalazin-2-yl)-N-(1-cyclobutylethyl)acetamide] |
| < 10000 | 159 | CCN1CCC[C@@H](NC(=O)Cn2nc(C(C)C)c3cc(Br)ccc3c2=O)C1 [Example 3, (R)-2-(6-Bromo-4-isopropyl-1-oxophthalazin-2(1H)-yl)-N-(1-ethylpiperidin-3-yl)acetamide] |
| < 10000 | 2550 | CC(C)c1nn(CC(=O)NC2CCc3nncn3C2)c(=O)c2ccc(Br)cc12 (stereo not shown) [Example 47, 2-(6-bromo-1-oxo-4-propan-2-ylphthalazin-2-yl)-N-(5,6,7,8-tetrahydro-[1,2,4]triazolo[4,3-a]pyridin-6-yl)acetamide] |
| < 10000 | 2130 | CC(C)c1nn(CC(=O)Nc2ccnn2C2CCC2)c(=O)c2ccc(Br)cc12 [Example 123, 2-(6-bromo-1-oxo-4-propan-2-ylphthalazin-2-yl)-N-(2-cyclobutylpyrazol-3-yl)acetamide] |
